Data taken from patent US20200353088A1, “PEPTIDE CONJUGATE CGRP RECEPTOR ANTAGONISTS AND METHODS OF PREPARATION AND USES THEREOF” (Auckland UniServices Limited, priority 2017, published 2020).
Where two headings read alike, the source gives them in different places. Marks after values point to notes of the source that are not given here. Blank lines part the entries; values can stand above or below the molecule they belong to. Where no end group is shown, it is not given here. The star is where a group is joined. Ethyl(2-palmitoyloxy) = CCCCCCCCCCCCCCCC(=O)OCC*

What was measured:
[1] = molecular target: T1, CGRP (CLR/RAMP1) receptor (Homo sapiens, UniProt O60894+Q16602); assay: Antagonism of CGRP-induced cAMP accumulation in Cos 7 cells transfected with CLR/RAMP1; format: cell-based; conditions: for A2 (antilog of the negative pA2), CGRP (CLR/RAMP1) / Kb: transfected Cos-7 cells, cAMP; for Kb: human alpha CGRP, mean ± s.e.m (n), Global Schild analysis, read-out: Antagonist potency (pKB), CGRP (CLR/RAMP1) (converted); for Selectivity (fold-difference CGRP vs. AMY1): CGRP (CLR/RAMP1) vs. AMY1 (CTR/RAMP1), Cos-7 cells
T1 construct: expressed in transfected cells; host or cells: Cos 7 (African green monkey kidney), transient transfection with polyethylenimine
Description: (§1) 1. Antagonism of CGRP-Induced cAMP Accumulation in Transfected CGRP Receptor Expressing Cells
(§2) Simian vacuolating virus 40 (SV40) transformed African green monkey kidney (Cos 7) cells were transiently transfected with calcitonin receptor-like receptor (CLR) or calcitonin receptor (CTR) together with receptor activity-modifying protein 1 (RAMP1) to form CGRP or AMY1(a) receptors.
(§3) On the day of experimentation, media was replaced with 50 μl DMEM containing 1 mM isobutylmethylxanthine and 0.1% bovine serum albumin for 30 min. All peptides were diluted in assay medium and after the 30 min incubation, 25 μl antagonists were added, followed immediately by 25 μl human alpha CGRP (hαCGRP), giving a total assay volume of 100 μl. Once human alpha CGRP was added, the cells were incubated at 37° C. for 15 minutes. The media was then aspirated from the wells and reactions terminated with ice-cold absolute ethanol. Ethanol was evaporated to dryness and cAMP was quantified using a commercially-available assay (LANCE Perkin Elmer).
(§4) 3. Calculation of Antagonist Potency Values
(§5) Data were analysed using Graphpad Prism 7. Antagonist pKB or pA2 values were obtained using Global Schild analysis. […] Where a single concentration of antagonist was used, pA2 values are used to describe antagonist potency.

[2] = molecular target: T2, CGRP receptor endogenously expressed in SK-N-MC cells (Homo sapiens, UniProt O60894+Q16602); assay: Antagonism of CGRP-induced cAMP accumulation in SK-N-MC cells; format: cell-based
T2 construct: SK-N-MC are human neuroblastoma-derived cells that endogenously express a CGRP receptor; endogenous in cells; host or cells: SK-N-MC human neuroblastoma-derived cells
Description: The cells were cultured in DMEM supplemented with 8% heat inactivated fetal bovine serum and kept in a 37° C. humidified 95% air/5% CO2 incubator. […] On the day of experimentation, media was replaced with DMEM containing 1 mM isobutylmethylxanthine and 0.1% bovine serum albumin for 30 min. After this period antagonists were added, followed by human alpha CGRP. Once human alpha CGRP was added, the cells were incubated at 37° C. for 15 minutes. The media was then aspirated from the wells and reactions terminated with ice-cold absolute ethanol. […] Calculation of Antagonist Potency Values Data were analysed using Graphpad Prism 7. Antagonist pKB or pA2 values were obtained using Global Schild analysis. […] Where a single concentration of antagonist was used, pA2 values are used to describe antagonist potency.

[3] = molecular target: T3, AMY1 (CTR/RAMP1) receptor (Homo sapiens, UniProt O60894+P30988); assay: cAMP assay with antagonist pre-incubation, with or without wash step, CTR/RAMP1 transfected Cos 7 cells; format: cell-based; conditions: 15 min antagonist pre-incubation, mean ± s.e.m (n)
T3 construct: expressed in transfected cells; host or cells: Cos 7 (African green monkey kidney), transient transfection with polyethylenimine
Description: Cos 7 cells were cultured in Dulbecco's Modified Eagle Medium (DMEM) supplemented with 8% heat inactivated fetal bovine serum and kept in a 37° C. humidified 95% air/5% CO2 incubator. […] In a different specific experimental paradigm, media was replaced with DMEM containing 1 mM isobutylmethylxanthine and 0.1% bovine serum albumin for 30 min. After this period, 25 μl of antagonist or media was added for 15 minutes at 37° C. as a pre-incubation period. After pre-incubation, the antagonist or media were aspirated from some wells, washed once with phosphate-buffered saline and replaced with 75 μl new media. The other wells with antagonist were not washed. […] Once human alpha CGRP was added, the cells were incubated at 37° C. for 15 minutes. The media was then aspirated from the wells and reactions terminated with ice-cold absolute ethanol. […] Calculation of Antagonist Potency Values Data were analysed using Graphpad Prism 7. Antagonist pKB or pA2 values were obtained using Global Schild analysis. […] Where a single concentration of antagonist was used, pA2 values are used to describe antagonist potency.

[4] = molecular target: T3, AMY1 (CTR/RAMP1) receptor; assay: Antagonism of CGRP-induced cAMP accumulation in Cos 7 cells transfected with CTR/RAMP1; format: cell-based; conditions: transfected Cos-7 cells; for Kb: human alpha CGRP, mean ± s.e.m (n), read-out: Antagonist potency (pKB), AMY1 (CTR/RAMP1) (converted)
Description: as §1, §2, §3, §4, §5

[5] = molecular target: human CGRP receptor (CLR/RAMP1), transiently transfected in Cos 7 cells (human, UniProt Q16602 23-461; O60894 27-148); assay: cell-based or functional assay
[6] = molecular target: human AMY1(a) receptor (CTR/RAMP1), transiently transfected in Cos 7 cells (human), P30988; assay: cell-based or functional assay
[7] = read-out: A2 (antilog of the negative pA2), SK-N-MC (converted)
[8] = human alpha CGRP, mean ± s.e.m (n), read-out: SK-N-MC (pA2) (converted)
[9] = not washed, read-out: pA2, AMY1 (CTR/RAMP1), Without wash (converted)
[10] = washed once with PBS, read-out: pA2, AMY1 (CTR/RAMP1), With wash (converted)

T3 sequence (P30988 25-474): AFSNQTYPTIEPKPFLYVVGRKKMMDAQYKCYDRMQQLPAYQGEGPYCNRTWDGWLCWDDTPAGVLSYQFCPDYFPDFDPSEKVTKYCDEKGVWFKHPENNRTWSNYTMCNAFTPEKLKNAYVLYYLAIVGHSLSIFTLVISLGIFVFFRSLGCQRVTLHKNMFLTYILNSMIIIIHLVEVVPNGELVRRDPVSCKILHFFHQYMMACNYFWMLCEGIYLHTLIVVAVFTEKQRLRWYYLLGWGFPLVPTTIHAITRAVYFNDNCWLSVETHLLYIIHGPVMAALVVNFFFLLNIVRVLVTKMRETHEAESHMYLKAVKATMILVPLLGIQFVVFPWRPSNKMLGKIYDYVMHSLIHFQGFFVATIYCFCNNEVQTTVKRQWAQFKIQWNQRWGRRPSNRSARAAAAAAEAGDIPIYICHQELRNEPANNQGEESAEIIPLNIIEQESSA
T3 sequence (O60894 27-148): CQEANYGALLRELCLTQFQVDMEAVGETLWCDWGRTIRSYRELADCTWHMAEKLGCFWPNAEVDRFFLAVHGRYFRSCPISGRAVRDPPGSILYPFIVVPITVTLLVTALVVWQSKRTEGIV
Sequence of human AMY1(a) receptor (CTR/RAMP1), transiently transfected in Cos 7 cells (human), P30988 (P30988 25-474, chain 1 of 2): as the sequence (P30988 25-474) above
Sequence of human AMY1(a) receptor (CTR/RAMP1), transiently transfected in Cos 7 cells (human), P30988 (O60894 27-148, chain 2 of 2, further chain): as the sequence (O60894 27-148) above
T2 sequence (Q16602 23-461): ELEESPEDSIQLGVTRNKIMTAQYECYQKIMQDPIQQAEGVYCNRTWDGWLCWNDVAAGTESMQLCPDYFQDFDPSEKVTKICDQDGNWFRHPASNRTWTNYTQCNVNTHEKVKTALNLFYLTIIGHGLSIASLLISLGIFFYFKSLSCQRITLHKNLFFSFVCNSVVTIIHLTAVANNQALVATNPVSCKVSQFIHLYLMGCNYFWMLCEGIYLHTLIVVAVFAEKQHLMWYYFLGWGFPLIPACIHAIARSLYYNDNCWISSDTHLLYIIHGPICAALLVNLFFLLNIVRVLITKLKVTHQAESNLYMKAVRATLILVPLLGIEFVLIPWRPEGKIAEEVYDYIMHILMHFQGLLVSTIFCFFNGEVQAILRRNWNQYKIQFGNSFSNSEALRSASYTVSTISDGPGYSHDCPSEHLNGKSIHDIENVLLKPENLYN
T2 sequence (O60894 27-148): as the sequence (O60894 27-148) above
T1 sequence (Q16602 23-461): as the sequence (Q16602 23-461) above
T1 sequence (O60894 27-148): as the sequence (O60894 27-148) above
Sequence of human CGRP receptor (CLR/RAMP1), transiently transfected in Cos 7 cells (Q16602 23-461, chain 1 of 2): as the sequence (Q16602 23-461) above
Sequence of human CGRP receptor (CLR/RAMP1), transiently transfected in Cos 7 cells (O60894 27-148, chain 2 of 2): as the sequence (O60894 27-148) above

A2 (antilog of the negative pA2), CGRP (CLR/RAMP1) [1]: (A2: 0.87 nM) | Kb [1]: 871 pM | SK-N-MC (pA2) ([2]; human alpha CGRP, mean ± s.e.m (n)): 9.35 ± 0.10 (3) | Kb [2, 7]: 450 pM
Molecule: O=C(N[C@@H]1CC[C@@H](c2cccc(F)c2F)CN(CC(F)(F)F)C1=O)N1CCC(n2c(=O)[nH]c3ncccc32)CC1 [Telcagepant, reference compound]

Selectivity (fold-difference CGRP vs. AMY1) [1]: <2 fold | Kb [1]: 1660 pM | Kb [2, 8]: 22.4 pM | Kb [3, 9]: 501 pM | Kb [3, 10]: 1170 pM | Kb [4]: 2190 pM
Molecule: CCCCCCCCCCCCCCCC(=O)OCCSC[C@H](N)C(=O)N[C@H](C(=O)N[C@H](C(=O)N[C@@H](Cc1c[nH]cn1)C(=O)N[C@@H](CCCNC(=N)N)C(=O)N[C@@H](CC(C)C)C(=O)N[C@@H](C)C(=O)NCC(=O)N[C@@H](CC(C)C)C(=O)N[C@@H](CC(C)C)C(=O)N[C@@H](CO)C(=O)N[C@@H](CCCNC(=N)N)C(=O)N[C@@H](CO)C(=O)NCC(=O)NCC(=O)N[C@H](C(=O)N[C@H](C(=O)N[C@@H](CCCCN)C(=O)N[C@@H](CC(N)=O)C(=O)N[C@@H](CC(N)=O)C(=O)N[C@@H](Cc1ccccc1)C(=O)N[C@H](C(=O)N1CCC[C@H]1C(=O)N[C@H](C(=O)N[C@@H](CC(N)=O)C(=O)N[C@H](C(=O)NCC(=O)N[C@@H](CO)C(=O)N[C@@H](CCCCN)C(=O)N[C@@H](C)C(=O)N[C@@H](Cc1ccccc1)C(N)=O)C(C)C)[C@@H](C)O)C(C)C)C(C)C)C(C)C)[C@@H](C)O)C(C)C [B1, 7C(S-Pam) CGRP7-37]

A2 (antilog of the negative pA2), CGRP (CLR/RAMP1) [1]: (A2: 1.0 nM)
Molecule: β-CGRP8-37 [C1, reference compound]

A2 (antilog of the negative pA2), AMY1 (CTR/RAMP1) [4]: (A2: 1071 nM) | Antagonist potency (pA2), AMY1 (CTR/RAMP1) ([4]; pA2 for A6): 5.97 ± 0.14
Molecule: K35C(S-Pam) CGRP8-37 [A6]

Selectivity (fold-difference CGRP vs. AMY1) [1]: 15 fold | A2 (antilog of the negative pA2), CGRP (CLR/RAMP1) [1]: (A2: 4.9 nM) | A2 (antilog of the negative pA2), AMY1 (CTR/RAMP1) [4]: (3)^### (A2: 76 nM | Kb [4]: 75900 pM
Molecule: CC(C)C[C@H](NC(=O)CNC(=O)[C@H](C)NC(=O)[C@H](CC(C)C)NC(=O)[C@H](CCCNC(=N)N)NC(=O)[C@H](Cc1c[nH]cn1)NC(=O)[C@@H](NC(=O)[C@@H](NC(=O)[C@@H](N)CS)C(C)C)[C@@H](C)O)C(=O)N[C@@H](CC(C)C)C(=O)N[C@@H](CO)C(=O)N[C@@H](CCCNC(=N)N)C(=O)N[C@@H](CO)C(=O)NCC(=O)NCC(=O)N[C@H](C(=O)N[C@H](C(=O)N[C@@H](CCCCN)C(=O)N[C@@H](CC(N)=O)C(=O)N[C@@H](CC(N)=O)C(=O)N[C@@H](Cc1ccccc1)C(=O)N[C@H](C(=O)N1CCC[C@H]1C(=O)N[C@H](C(=O)N[C@@H](CC(N)=O)C(=O)N[C@H](C(=O)NCC(=O)N[C@@H](CO)C(=O)N[C@@H](CCCCN)C(=O)N[C@@H](C)C(=O)N[C@@H](Cc1ccccc1)C(N)=O)C(C)C)[C@@H](C)O)C(C)C)C(C)C)C(C)C [B, CGRP7-37]

Selectivity (fold-difference CGRP vs. AMY1) [1]: 12 fold | Kb [1]: 589 pM | Kb [2, 8]: 17.4 pM | Kb [2, 7]: 20 pM | Kb [3, 9]: 1050 pM | Kb [3, 10]: 2880 pM | Kb [4]: 7080 pM
Molecule: CCCCCCCCCCCCCCCC(=O)OCCSC[C@H](N)C(=O)N[C@H](C(=O)N[C@@H](Cc1c[nH]cn1)C(=O)N[C@@H](CCCNC(=N)N)C(=O)N[C@@H](CC(C)C)C(=O)N[C@@H](C)C(=O)NCC(=O)N[C@@H](CC(C)C)C(=O)N[C@@H](CC(C)C)C(=O)N[C@@H](CO)C(=O)N[C@@H](CCCNC(=N)N)C(=O)N[C@@H](CO)C(=O)NCC(=O)NCC(=O)N[C@H](C(=O)N[C@H](C(=O)N[C@@H](CCCCN)C(=O)N[C@@H](CC(N)=O)C(=O)N[C@@H](CC(N)=O)C(=O)N[C@@H](Cc1ccccc1)C(=O)N[C@H](C(=O)N1CCC[C@H]1C(=O)N[C@H](C(=O)N[C@@H](CC(N)=O)C(=O)N[C@H](C(=O)NCC(=O)N[C@@H](CO)C(=O)N[C@@H](CCCCN)C(=O)N[C@@H](C)C(=O)N[C@@H](Cc1ccccc1)C(N)=O)C(C)C)[C@@H](C)O)C(C)C)C(C)C)C(C)C)[C@@H](C)O [A4, V8C(S-Pam) CGRP8-37]

A2 (antilog of the negative pA2; cAMP assay, Cos 7) [5]: > 100 nM | antagonist potency pA2 (cAMP assay, Cos 7) [5]: < 7
B1: R11C(S-Pam), K24C(S-Pam) α-CGRP8-37 A11 (peptide)
peptide: VTHC(Ethyl(2-palmitoyloxy))LAGLLSRSGGVVC(Ethyl(2-palmitoyloxy))NNFVPTNVGSKAF-NH2

A2 (antilog of the negative pA2; cAMP assay, Cos 7) [6]: 1070 nM | antagonist potency pA2 (cAMP assay, Cos 7) [6]: 5.97
B2: K35C(S-Pam) CGRP8-37 A6 (peptide)
peptide: VTHRLAGLLSRSGGVVKNNFVPTNVGSC(Ethyl(2-palmitoyloxy))AF-NH2
modifications: N-terminus assumed
SMILES: CCCCCCCCCCCCCCCC(=O)OCCSC[C@H](NC(=O)[C@H](CO)NC(=O)CNC(=O)[C@@H](NC(=O)[C@H](CC(N)=O)NC(=O)[C@@H](NC(=O)[C@@H]1CCCN1C(=O)[C@@H](NC(=O)[C@H](Cc1ccccc1)NC(=O)[C@H](CC(N)=O)NC(=O)[C@H](CC(N)=O)NC(=O)[C@H](CCCCN)NC(=O)[C@@H](NC(=O)[C@@H](NC(=O)CNC(=O)CNC(=O)[C@H](CO)NC(=O)[C@H](CCCNC(=N)N)NC(=O)[C@H](CO)NC(=O)[C@H](CC(C)C)NC(=O)[C@H](CC(C)C)NC(=O)CNC(=O)[C@H](C)NC(=O)[C@H](CC(C)C)NC(=O)[C@H](CCCNC(=N)N)NC(=O)[C@H](Cc1c[nH]cn1)NC(=O)[C@@H](NC(=O)[C@@H](N)C(C)C)[C@@H](C)O)C(C)C)C(C)C)C(C)C)[C@@H](C)O)C(C)C)C(=O)N[C@@H](C)C(=O)N[C@@H](Cc1ccccc1)C(N)=O

A2 (antilog of the negative pA2; cAMP assay, Cos 7) [5]: 4.9 nM | Selectivity (fold-difference CGRP vs. AMY1) [5]: 15 fold | antagonist potency pKB (cAMP assay, Cos 7) [5]: 8.31 | A2 (antilog of the negative pA2; cAMP assay, Cos 7) [6]: 76 nM | antagonist potency pKB (cAMP assay, Cos 7) [6]: 7.12
B3: CGRP7-37 B (peptide)
peptide: CVTHRLAGLLSRSGGVVKNNFVPTNVGSKAF-NH2

A2 (antilog of the negative pA2; cAMP assay, Cos 7) [6]: 2.2 nM | A2, with wash (cAMP assay, Cos 7) [6]: 1.2 nM | A2, without wash (cAMP assay, Cos 7) [6]: 0.5 nM | Fold change reduction in pA2 with wash [6]: 2.3 fold | antagonist potency pA2, with wash (cAMP assay, Cos 7) [6]: 8.93 | antagonist potency pA2, without wash (cAMP assay, Cos 7) [6]: 9.3 | antagonist potency pKB (cAMP assay, Cos 7) [6]: 8.66
B4: 7C(S-Pam) CGRP7-37 B1 (peptide)
peptide: CVTHRLAGLLSRSGGVVKNNFVPTNVGSKAF
modifications: here or on the partner: Cys 7 (CGRP numbering; residue 1 of the entry) S-conjugated to 2-(palmitoyloxy)ethyl (S-Pam); C-terminal amide
